The source of these data is patent publication US8007994B2, “Compositions and methods of modulating cholesterol metabolism” (The Board of Regents of the University of Texas System, priority 1998, dated 2011).

The test system of series [1] is liver cholesterol. In words: Liver cholesterol accumulation in cholesterol-fed LXRα wild-type and knockout mice. It counts as in vivo, mouse. The settings on record: 0.2% cholesterol diet, 30 mg/kg body weight in diet, 10 days. The protocol:
Male, A129 strain mice (LXRα+/+ and −/−) were fed Teklad 7001 powdered diet supplemented with 0.2% cholesterol 0.015% LG268 (provides 30 mg/kg body weight), vehicle, or 2% surfomer (a surfactant polymer that inhibits cholesterol absorption, Turley et al., 1991) ad libitum for 10 days. Animals were sacrificed and a liver aliquot was saponified and extracted and the cholesterol content was determined by gas chromatography using stigmastanol as an internal standard (Turley et al., 1994). Liver cholesterol accumulation was prevented by ingestion of LG268 in both LXRα knockout and wild-type mice. The two most likely mechanisms for this effect are (1) increased cholesterol output by enhanced bile acid production and secretion and/or (2) decreased cholesterol input by diminished cholesterol absorption.
Male, A129 strain mice were fed Teklad 7001 powdered diet supplemented with 0.2% cholesterol and various levels of LG268 (providing 1.4 to 30 mg/kg body weight) or vehicle ad libitum for 10 days. […] Liver cholesterol concentration was determined as by gas chromatography.
Male, A129 strain mice were fed Teklad 7001 powdered diet supplemented with 0.2% cholesterol LG268 or LG721 (to provide 3 mg/kg body weight) ad libitum for 10 days. […] Liver cholesterol concentration was determined as by gas chromatography.

The subject of the next series is bile acid production. As to the kind of experiment: Bile acid pool size and fecal bile acid excretion in cholesterol-fed mice. The class given is in vivo, mouse. The following applies: LXRα +/+ and −/− mice, 2% cholesterol diet, 30 mg/kg oral gavage daily, 7 days. How it is done: Female, mixed strain (LXRα+/+ and −/−) mice were fed Teklad 7001 2% cholesterol (w/w) diet ad libitum for 7 days. Each day mice received a single bolus dose of LG268 ([…] to provide 30 mg/kg body weight) or vehicle by oral gavage. Mice were killed and liver cholesterol was determined as described in FIG. 1. Small intestine (with luminal contents) and gall bladder were extracted together to determine bile acid pool size and composition as described by Schwartz et al., 1998. Stools were collected over 3 days from the individually housed mice, dried, weighed and ground. Fecal bile acid content was determined by an enzymatic method (Turley et al., 1996).

For series [2], the system named is cholesterol absorption. In words: Cholesterol absorption by the fecal isotope ratio method in mice. It counts as in vivo, mouse. The protocol:
Male, A129 strain mice (LXRα+/+ and −/−) were fed Teklad 7001 powdered diet supplemented with 0.2% cholesterol 0.015% LG268 (provides 30 mg/kg body weight), vehicle, or 2% surfomer ad libitum for 10 days. On day 7, mice received a gavage dose of [22,23-3H]b-sitostanol (American Radiolabeled Chemicals, St. Louis, Mo.) and [4-14C]cholesterol (Amersham) for the measurement of cholesterol absorption by the fecal isotope ratio method (Turley et al., 1994). […] In light of the extreme potency of LG268, a dose-response analysis was performed.
Male, A129 strain mice were fed Teklad 7001 powdered diet supplemented with 0.2% cholesterol and various levels of LG268 (providing 1.4 to 30 mg/kg body weight) or vehicle ad libitum for 10 days. On day 7, mice received a gavage dose of [22,23-3H]b-sitostanol (American Radiolabeled Chemicals, St. Louis, Mo.) and [4-14C]cholesterol (Amersham) for the measurement of cholesterol absorption by the fecal isotope ratio method (Turley et al., 1994). Liver cholesterol concentration was determined as by gas chromatography.
Male, A129 strain mice were fed Teklad 7001 powdered diet supplemented with 0.2% cholesterol LG268 or LG721 (to provide 3 mg/kg body weight) ad libitum for 10 days. On day 7, mice received a gavage dose of [22,23-3H]b-sitostanol (American Radiolabeled Chemicals, St. Louis, Mo.) and [4-14C]cholesterol (Amersham) for the measurement of cholesterol absorption by the fecal isotope ratio method (Turley et al., 1994). Liver cholesterol concentration was determined as by gas chromatography.

Another series relates to total lipid absorption. As to the kind of experiment: Total lipid absorption determined gravimetrically in mice. It counts as in vivo, mouse. The protocol:
Total lipid absorption was determined in the study described above (FIG. 4) to establish whether LG268 effects were specific to cholesterol or were affecting lipid absorption or intestinal integrity. Total lipid absorption was determined gravimetrically (Schwartz et al., 1998) by establishing lipid intake (amount of food consumed over 72 hours×dietary lipid content) and lipid output (fecal lipid content×quantity of stool collected over the same 72 hours) to calculate the fraction of lipid consumed that was absorbed. […] The gravimetric determination of lipid absorption shown in FIG. 5 confirmed these findings. The reduction in lipid absorption seen in these animals can be accounted for by the reduction in cholesterol uptake (cholesterol comprises ˜5% of the lipid in these diets and is extracted and measured as lipid in these analyses). Therefore, the effects of LG268 are specific for cholesterol absorption.

The next series has as its system cholesterol biosynthesis. As to the kind of experiment: Rates of sterol synthesis in vivo ([3H]water incorporation). Set-up: species or system mouse. The following applies: mice, 0.2% cholesterol diet, 7 days. How it is done:
Male, A129 mice were fed Teklad 7001 diet supplemented with 0.2% cholesterol and vehicle or LG268 (at 3 or 30 mg/kg body weight) for 7 days ad libitum. Rates of sterol synthesis were measured in vivo as described (Jeske and Dietschy, 1980, Turley et al., 1981) based on the incorporation of [^3H]water into digitonin-precipitable sterols over one hour.

Series [3] concerns liver cholesterol. In words: Liver cholesterol in cholesterol-fed Golden Syrian hamsters. It counts as in vivo, Golden Syrian hamster. The following applies: male hamsters, 0.2% cholesterol diet, 3 or 30 mg/kg body weight, 12 days. The protocol:
(§1) Hamsters provide a better animal model for cholesterol metabolism than mice (however, mice offer the advantage that they can be genetically manipulated, for example the LXRα−/− strain). […] Male Syrian Golden hamsters were fed Teklad 7001 diet supplemented with 0.2% cholesterol and vehicle, LG268 (providing 3 or 30 mg/kg body weight) or 2% surfomer. On day 7, they received a gavage dose of [22,23-3H]b-sitostanol (American Radiolabeled Chemicals, St. Louis, Mo.) and [4-14C]cholesterol (Amersham) for the measurement of cholesterol absorption by the fecal isotope ratio method (Turley et al., 1994). Stools were collected from the individually housed hamsters over the next 72 hours. On day 12 the animals were sacrificed and liver was removed for cholesterol determination by gas chromatography (Turley et al., 1994). […] Therefore the effects of LG268 on cholesterol homeostasis are not limited to mice, but observed in other mammalian species as well.

The subject of series [4] is cholesterol absorption. In words: Cholesterol absorption by the fecal isotope ratio method in hamsters. The class given is in vivo, Golden Syrian hamster. The settings on record: male hamsters, 0.2% cholesterol diet, 3 or 30 mg/kg body weight. The protocol:
as §1

For another series, the system named is ACAT-1 mRNA. As to the kind of experiment: Northern analysis of duodenal intestine samples, ACAT-1. It counts as in vivo, mouse. The following applies: duodenum of treated mice, 10 days. From the text: (§2) It is known that exogenous cholesterol is taken up in the distal duodenum (and perhaps proximal jejunum) by the intestinal enterocyte, is rapidly esterified (by ACAT) and packaged into chylomicrons for transport into the lymphatic system (reviewed by Homan and Krause, 1997). Recently, caveolin has also been proposed to play a role in cholesterol trafficking in the intestine (Field et al., 1998). Disruption of any of these processes could result in diminished cholesterol absorption capacity. As LG268 is an agonist of the nuclear hormone receptor RXR, it is likely that the primary targets of this drug would be transcriptionally regulated and show a change in the steady state level of mRNA for critical target genes. Northern analyses were performed on duodenal intestine samples obtained in the experiment described in FIG. 4. Results were quantitated using a phosphoimager (Molecular Dynamics), standardized against b-actin controls, and mathematically adjusted to yield 1 unit for the vehicle-treated control group.

In a further series the test system is ACAT-2 mRNA. In words: Northern analysis of duodenal intestine samples, ACAT-2. It counts as in vivo, mouse. The settings on record: duodenum of treated mice, 10 days.
Description: as §2

Another series relates to caveolin mRNA. As to the kind of experiment: Northern analysis of duodenal intestine samples, caveolin. It counts as in vivo, mouse. The following applies: duodenum of treated mice, 10 days.
Description: as §2

Series [5] has as its system ATP-binding cassette protein-1 (ABC-1). As to the kind of experiment: Northern analysis of intestinal ABC-1 expression. It counts as in vivo. The settings on record: mouse small intestine, oral 30 mg/kg body weight, as little as 6 hours. How it is done:
The ATP-binding cassette protein-1 is a newly described membrane protein implicated in reverse cholesterol transport, in other words the efflux of cholesterol from peripheral tissues to the liver (Young and Fielding, 1999; Tall, 1998).
Male A129 strain mice were fed Teklad 7001 powdered diet supplemented with 0.2% cholesterol and 0.015% LG268, equimolar LG721 (see example 12) or vehicle at 7 pm (beginning of dark cycle). Animals were sacrificed at 1 am (6 hour time point) or 7 am (12 hr), the intestine was removed and rinsed with ice-cold phosphate buffered saline, then subdivided into 5 segments of equal length (˜8 cm each, FIG. 10A) or 3 segments (the proximal segment representing the duodenumis depicted in FIG. 10B). Intestinal mucosa was obtained from each segment and poly (A+) RNA isolated for northern analyses. Results were quantified using a phosphorimager, standardized against b-actin controls, and mathematically adjusted to yield 1 unit for the vehicle-treated control group.

A further series relates to RXR. The following applies: cited from earlier work.

Each structure is given as a SMILES string. Entries after “also recorded” stand apart in the source; their conditions may differ. Read-outs that look alike come from different tables or passages of the source.

For the molecule `Cc1cc2c(cc1C1(c3ccc(C(=O)O)cn3)CC1)C(C)(C)CCC2(C)C` [LG268], the liver cholesterol accumulation result in the series on liver cholesterol [1] is “prevented”. Further, in the series on bile acid production, the “liver cholesterol accumulation prevented via bile acid production (bile acid pool size and excretion)” value is “did not prevent the liver accumulation by increasing bile acid production”. Further, the cholesterol absorption result in the series on cholesterol absorption [2] (LXRα +/+ and −/− mice, 0.2% cholesterol diet, 30 mg/kg body weight, 10 days, 30 mg/kg) is “completely inhibited; also recorded: total block in cholesterol absorption”; in the series with cholesterol absorption [4], “inhibiting cholesterol absorption”. In addition, the “inhibition of cholesterol absorption compared with 2% surfomer” value with cholesterol absorption [2] (mice, LG268 0.015% of diet, dose 130-fold lower than surfomer) is “more effective than surfomer”. For the same molecule, the “lowest effective dose preventing liver cholesterol accumulation by inhibiting cholesterol absorption” value with cholesterol absorption [2] (wild-type mice, 0.2% cholesterol diet, doses 1.4 to 30 mg/kg, 10 days) came to 1.4 mg/kg body weight. For the same molecule, the stool output result in the series on total lipid absorption (wild-type mice receiving LG268 in diet) is recorded as “normal”. In addition, the general lipid absorption entry with total lipid absorption (wild-type mice, 0.2% cholesterol diet, LG268 in diet, 10 days) is reported as “not experiencing general lipid malabsorption or steattorhea; also recorded: unaffected”. Also, in the series with cholesterol biosynthesis (3 or 30 mg/kg body weight), the cholesterol biosynthesis entry is recorded as “increased cholesterol biosynthesis”. Also, the “sterol synthesis in spleen, kidney and carcass” value in the series on cholesterol biosynthesis (3 or 30 mg/kg, dose-dependent) is “Increased synthesis”. For the same molecule, the liver cholesterol entry in the series with liver cholesterol [3] was “effective in hamsters in reducing liver cholesterol”. In addition, the “ACAT-1 mRNA level” value in the series with ACAT-1 mRNA was “No apparent change”. For the same molecule, the “ACAT-2 mRNA level” value in the series with ACAT-2 mRNA was “No apparent change”. Also, the “caveolin mRNA level” value in the series on caveolin mRNA is listed as “No apparent change”. Further, the ABC-1 expression result in series [5] was “greatly increased”. Moreover, the “RXR binding and activation” value is “binds and activates RXR” in the series with RXR; “binds and activates all RXR subtypes” with RXR (listed as LG100268). Moreover, the “binding to other related nuclear receptors” value in the series with RXR (selectivity) was “fails to exhibit binding”.
